The source of these data is paper PMC10530836, “Synthesis, Molecular Docking, and Biological Evaluation of Novel Anthranilic Acid Hybrid and Its Diamides as Antispasmodics” (International Journal of Molecular Sciences, 2023).

One test concerns the target T1, human albumin (Homo sapiens, UniProt P02768).
T1 construct: purchased Octapharma (IP) SPRL Albunorm 20
In words: Inhibition of albumin denaturation (anti-inflammatory activity). Format: biochemical. Conditions: heat-induced denaturation. The method, then:
Anti-denaturation assay was conducted as described by Kumari et al. with slight modifications. The reaction mixture consisted of 0.5 mL of 5% aqueous solution of human albumin (Albunorm 20, Octapharma (IP) SPRL, 1070 Anderlecht, Belgium) and 0.2 mL of the tested compound, dissolved in DMSO, at different concentrations (20–500 μg/mL). The samples were incubated at 37 °C for 15 min. After that, 2.5 mL phosphate-buffered saline (pH 6.3) was added to each tube and the samples were heated for 30 min to 80 °C and then cooled for 5 min. Turbidity was measured spectrophotometrically at 660 nm (Cary 60 UV-Vis, Agilent Technologies, Santa Clara, CA, USA). For the blank sample, a mixture of 2.5 mL buffer and 0.2 mL DMSO was used instead of the compounds, while the product control test lacked the compounds’ concentration having 0.5 mL serum albumin, and 2.5 mL buffer only. The percentage inhibition of protein denaturation was calculated as follows:Percentage of inhibition denaturation = (Absorbancecontrol − Absorbancesample) / Absorbancecontrol × 100
The control represents 100% protein denaturation.
Commercially available over-the-counter non-steroidal anti-inflammatory drugs diclofenac sodium and acetylsalicylic acid were used for comparison. Their anti-inflammatory effect was determined as a percentage of inhibition of albumin denaturation following the same protocol as for the novel compounds.

Test [1] relates to Klebsiella pneumoniae ATCC 13883. In words: Antimicrobial activity, agar well diffusion. It counts as cell-based. Conditions: Dose 0.6 mg/disk, dwell = 6 mm.
Test [2] concerns gastric smooth muscle preparations (SMPs) from Wistar rats. In words: Ex vivo smooth muscle relaxant activity. On the set-up: species or system rat. Conditions: for Tonic relaxation: 5 × 10^−5 mol/L, SM pre-contracted with 1 × 10^−7 mol/L CCh. The text has this: The utilization of an SM preparation from the corpus of a rat stomach that had been pharmacologically pre-contracted was the main goal of our work. The excitatory neurotransmitter acetylcholine (ACh) in the enteric nervous system is appropriate for this purpose. It affects the digestive system by increasing the amplitude of digestive contractions and peristalsis in the stomach. We evaluated the viability of the SM using their stimulatory impact. Via muscarinic (M2 and M3) receptors, ACh and its counterpart cholinergic agonist carbachol (CCh, carbamylcholine) cause excitatory motor responses in GI SM cells. Unlike ACh, which breaks down quickly, CCh has a long-lasting response. Therefore, we used CCh to start the induced muscle contraction. […] A persistent, prolonged tonic contraction that is brought on by the extracellular inflow of Ca^2+ into SM cells occurs next. The relaxation effects of the tested compounds 3 and 4a–e were investigated by cumulative addition of the tested substances in concentrations of 1 × 10^−7, 5 × 10^−7, 1 × 10^−6, 5 × 10^−6, 1 × 10^−5, 5 × 10^−5, and 1 × 10^−4 mol/L at the plateau of the CCh-induced contraction. In order to measure relaxation, the percent decrease in contractile tension from the 1 × 10^−7 mol/L CCh-induced maximum was used. All subsequent reactions to chemicals were reported as a percentage of the submaximal SM contractile responses elicited by CCh, which were taken as 100% values and expressed as a base value for all subsequent responses (Figure 10A). Results were presented as mean ± SD.
SMPs with dimensions 1.0–1.5 mm wide and 10–12 mm long were obtained from adult male Wistar rats weighing about 270 g. […]
The pH of the solution was measured before each experiment using a pH-meter HI5521 (Hanna Instruments, Smithfield, RI, USA). […]
Experiments were performed to investigate the cumulative dose-dependent relaxation effects of compounds 3 and 4a–e on gastric SMPs, pre-contracted with CCh (1 × 10^−^7 mol/L). The CA of the SMPs and the changes in substance-evoked reactions were detected isometrically. […]

Usually IC50 stands for the concentration at which inhibition is half-maximal. Low readings indicate higher potency, high ones lower potency.

Molecules are shown by their SMILES.

T1 sequence (P02768 25-609): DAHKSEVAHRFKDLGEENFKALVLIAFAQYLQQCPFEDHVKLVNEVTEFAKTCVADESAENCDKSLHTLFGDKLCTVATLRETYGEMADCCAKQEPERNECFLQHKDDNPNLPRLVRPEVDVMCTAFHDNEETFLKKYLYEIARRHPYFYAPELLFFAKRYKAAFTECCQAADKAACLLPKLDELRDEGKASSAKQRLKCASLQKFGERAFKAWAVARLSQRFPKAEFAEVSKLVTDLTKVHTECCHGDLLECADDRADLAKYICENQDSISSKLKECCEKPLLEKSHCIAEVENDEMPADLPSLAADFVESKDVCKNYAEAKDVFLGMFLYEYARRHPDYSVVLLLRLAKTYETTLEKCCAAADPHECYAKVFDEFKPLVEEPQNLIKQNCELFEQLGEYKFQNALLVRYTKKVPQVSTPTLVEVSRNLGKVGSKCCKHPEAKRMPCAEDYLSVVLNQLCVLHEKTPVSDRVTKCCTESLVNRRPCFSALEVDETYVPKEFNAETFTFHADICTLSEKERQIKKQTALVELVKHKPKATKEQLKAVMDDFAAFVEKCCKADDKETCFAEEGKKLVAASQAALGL

`O=C(Nc1ccccc1C(=O)NCCc1cccc(Cl)c1)c1ccccc1` [Compound 4b, 2-benzamido-N-(3-chlorophenethyl)benzamide]: the midpoint of inhibition against human albumin, the IC50, lay at 1950 µM.

For the compound `CC(=O)Nc1ccccc1C(=O)NCCc1cccc(Cl)c1` [Compound 4a, 2-acetamido-N-(3-chlorophenethyl)benzamide], the “Inhibition Zones” value in test [1] was 14 mm. The compound further had a Tonic relaxation in test [2] of 52%.

For `Nc1ccccc1C(=O)NCCc1cccc(Cl)c1` [Compound 3, 2-amino-N-(3-chlorophenethyl)benzamide], in test [1], the “Inhibition Zones” value was found to be 8 mm. The compound also had an IC50 against human albumin of 2400 µM. This compound registered a Tonic relaxation in test [2] of 59%. Also, the “effect on amplitude of spontaneous contractions” value in test [2] (submaximal concentration of 5 × 10^−5 mol/L) is listed as “more than 50%”.
